This is an account of results in patent US11305024B2, “Cross-linked polymer modified nanoparticles” (OREGON HEALTH & SCIENCE UNIVERSITY, priority 2015, dated 2022).

pIC50: −log10 of the molar value. A value given as a limit tells only on which side of the number the result lay.

Series [1] deals with HCC1954. The note with it: in vitro and/or in mice; cited from earlier work.
The conditions of series [2]: metastatic solid tumor patients; cited from earlier work.
The subject of another series is luciferase. The series is described as follows: Luciferase silencing by siLUC-loaded nanoconstructs in LM2-4luc+/H2N cells. The class given is cell-based. The note with it: 13-130 nM GALA, 15 nM siRNA, NP/siRNA 50, non-cross-linked PEI, 2 days. On the procedure:
The LM2-4luc+/H2N cell line (over-expressing luciferase and HER2; J. M. du Manoir et al., 2006) was used for initial assessment of the nanoparticles for gene silencing efficacy when delivering siRNA against luciferase (siLUC). Cells were plated at 3000 cells/well in a 96-well plate. One day after seeding, cells were treated with siLUC-nanoparticles. The nanoparticles were loaded with siLUC at NP/siRNA ratio of 25 or 50 by mass. […] The commercially available transfection agent, DharmaFECT™ (Dharmacon, Lafayette, Colo.), with the same siLUC dose served as a positive control. Non-targeting or scrambled siRNA (siSCR) was used throughout as a negative control. After overnight incubation (−20 hours), cells were washed once to remove the nanoconstructs and replenished with a complete media. At 48 hours post-treatment, cells were lysed and analyzed for luciferase activity by the Luciferase Glow Assay Kit (Thermo Fisher Scientific, Waltham, Mass.) and protein concentration by the BCA protein assay kit (Thermo Fisher Scientific), following manufacturer's protocols. Luciferase activity of the lysate was normalized with the corresponding protein concentration in the same well and reported as a percentage of the untreated or siSCR controls. All treatments were performed with replicates.

The next series deals with Red blood cells. The series is described as follows: Hemolysis. The note with it: 4 hours, 37° C.; nanoparticle 70 or 350 μg/mL (1× or 5×). The format is cell-based, human. The protocol:
Nanoparticles were tested at 1× and 5× of the intended human blood level. Studies of blood compatibility were performed following or with minor modification from the Nanotechnology Characterization Laboratory's (Frederick, Md.) published protocols.
Human blood was collected in the presence of EDTA, and serum was removed. Red blood cells were suspended at 1×10^9 cells per mL and exposed to nanoparticle (final concentrations of 70 or 350 μg/mL for 1× or 5×, respectively) for 4 hours and 37° C. Following centrifugation, absorbance of hemoglobin in the supernatants (at 542 nm) was measured and used to quantify percent hemolysis.

The test system of a further series is Platelet-rich plasma. The series is described as follows: Platelet aggregation assay. Also on record: species or system human. The note with it: monitored for three minutes; 1× and 5×.
The test system of series [3] is basal cells, HCC1954, BT549, and HCC70. The series is described as follows: Screening of siRNA in combination with paclitaxel, basal cells as a group. The class given is cell-based. The protocol: (§1) Cells were first treated with 30 nM siRNAs (and commercial DharmaFECT™) followed by 5 nM paclitaxel treatment 24 hours later. Cell viability was determined 3 days later. […] In short, knocking down HER2 had the greatest impact on paclitaxel toxicity in BT474 (having highest HER2 level). […] The effect of paclitaxel combined with siAKT1/BCL2 or siEPS8L1 was also significant. The best enhancement by siAKT1/BCL2 (38-41%) appeared to be with basal cells, HCC1954, BT549, and HCC70. EPS8L1 is involved in EGFR signaling and functions in cell migration.

The subject of series [4] is HCC1954. The series is described as follows: Screening of siRNA in combination with paclitaxel, cell viability. The class given is cell-based. The note with it: for Cell Viability (% of Scramble Control): 30 nM siRNA; for Enhanced Paclitaxel effect due to gene knockdown: over paclitaxel alone. On the procedure: as §1
A further series has as its system SKBR3. The series is described as above. The format is cell-based. The note with it: for Cell Viability (% of Scramble Control): 30 nM siRNA; for Enhanced Paclitaxel effect due to gene knockdown: over paclitaxel alone. The protocol: as §1
The test system of the next series is HCC70. The description is as above. The format is cell-based. The note with it: for Cell Viability (% of Scramble Control): 30 nM siRNA; for Enhanced Paclitaxel effect due to gene knockdown: over paclitaxel alone. On the procedure: as §1
A further series deals with BT549. The description is as above. The format is cell-based. The note with it: for Cell Viability (% of Scramble Control): 30 nM siRNA; for Enhanced Paclitaxel effect due to gene knockdown: over paclitaxel alone. On the procedure: as §1
The next series concerns BT474. The series is described as above. The note with it: for Cell Viability (% of Scramble Control): 30 nM siRNA; for Enhanced Paclitaxel effect due to gene knockdown: over paclitaxel alone. The format is cell-based. The protocol: as §1
A short description of series [5]: Serum protection assay (siRNA in 50% human serum). The format is in vitro ADME. The note with it: 37° C. On the procedure: siRNA-nanoparticles were incubated with 50 v/v % human serum in PBS for a specified period of time (0, 0.5, 1, 2, 4, 8, 24, and 48 hours) at 37° C. under continuous shaking. At the end of each time point, the sample was mixed with proteinase K (200 μg/mL) and frozen at −80° C. to stop the enzymatic reaction. For the analysis, samples were thawed and mixed with 1.0 wt. % SDS in order to release siRNA from the nanoparticles. The sample was then mixed with an equal amount of 2× loading buffer and loaded into a 15% TBE-urea gel (BioRad). The gel ran at 100 V for the first 20 minutes and 150 V for another hour. The gel was then stained with SyBR Gold (Life Technologies) following the manufacturer's protocol and viewed in a UV chamber. The band intensity was analyzed by ImageJ software (National Institutes of Health, Bethesda, Md.). The fraction of intact siRNA was reported as a function of time that the siRNA-nanoparticles were in 50% serum.

A further series has as its system HER2+ cell lines. The series is described as follows: Growth inhibition by siHER2 in a panel of HER2+ cell lines. The class given is cell-based. The note with it: 19 out of 20 HER2+ cell lines; read-out: dose of the siHER2 required to inhibit cell growth by 50% (G150).
[6] abbreviates: HCC1954 (HER2 positive, basal), DharmaFECT, paclitaxel −.
The mark [7] stands for this setting: HCC1954, then 5 nM paclitaxel 24 hours later (paclitaxel +).
Where [8] appears, read: SKBR3 (HER2 positive, luminal), DharmaFECT, paclitaxel −.
[9] abbreviates: SKBR3, then 5 nM paclitaxel 24 hours later (paclitaxel +).
Setting [10] is: HCC70 (triple negative, basal), DharmaFECT, paclitaxel −.
The mark [11] stands for this setting: HCC70, then 5 nM paclitaxel 24 hours later (paclitaxel +).
Where [12] appears, read: BT549 (triple negative, basal), DharmaFECT, paclitaxel −.
The mark [13] stands for this setting: BT549, then 5 nM paclitaxel 24 hours later (paclitaxel +).
Where [14] appears, read: BT474 (HER2 positive, luminal), DharmaFECT, paclitaxel −.
Setting [15] is: BT474, then 5 nM paclitaxel 24 hours later (paclitaxel +).

Method for Platelet-rich plasma: Platelet-rich plasma (PRP) was obtained following centrifugation of isolated blood (diluted in 3.2% sodium citrate, 1:10). The isolated blood was centrifuged at 200 g for 20 minutes. The supernatant (which contains PRP) was collected and maintained at room temperature prior to treatment. Following a 1-min incubation at 37° C. (baseline), reactions were initiated by addition of nanoparticle (70 or 350 μg/mL) or collagen related peptide (CRP; 100 μg/ml) and monitored for three minutes for optical density via an aggregometer (Chrono-log Corp).

Take `N.N.[Cl][Pt][Cl]` [cisplatin]: in the series with HCC1954 [1], the “resistance of HCC1954” value was “resistant”.

With `[SH-].[SH-].[S]=[Mo]=[S]` [tetrathiomolybdate], the “treated patients with mild copper deficiency who achieved stable disease” value in series [2] is listed as “five out of six”.

For the compound GALA, in the series on luciferase, the “effect of co-loaded peptide on silencing efficacy” value is recorded as “clearly enhanced silencing efficacy of the nanoconstructs”.

Take Triton-X: the “hemolysis of red blood cells” value in the series on Red blood cells was “complete blood lysis”.

As to collagen related peptide, the platelet aggregation entry in the series with Platelet-rich plasma is given as “triggered aggregation immediately”.

As to pertuzumab, the “resistance of HCC1954” value in the series on HCC1954 [1] is reported as “resistant”.

For “siAKT1/BCL2: dual-targeting siRNA duplex, one strand targets AKT1, the other BCL2, SEQ ID NO. 7 and 8 (chain 1 AUUCAGUUUCACAUUGCUUGGUGAC; chain 2 GUCACCAAGAACUGUGACACAGAAGGG; listed as RNA, chemistry not given here)”, in [3], the “best enhancement of paclitaxel effect” value is 38-41%. For the same compound, the “Cell Viability (% of Scramble Control)” value in the series on HCC1954 [4] (setting [6]) worked out at 47%; in the series on HCC1954 [4] (setting [7]), 17%; in the series with SKBR3 (setting [8]), 77%; in the series with SKBR3 (setting [9]), 29%; in the series on HCC70 (setting [10]), 42%; with HCC70 (setting [11]) it was 29%. The “Cell Viability (% of Scramble Control)” value is 54% with BT549 (setting [12]), 23% in the series on BT549 (setting [13]), 74% with BT474 (setting [14]) and 39% with BT474 (setting [15]). Also, the “Enhanced Paclitaxel effect due to gene knockdown” value in the series with HCC1954 [4] (HCC1954) is recorded as 38%; with SKBR3 (SKBR3) it was 10%; with HCC70 (HCC70) it was 41%; in the series with BT549 (BT549) it was 36%; in the series with BT474 (BT474), 19%.

For the compound “siHER2: siRNA against HER2, SEQ ID NO. 1 and 2 (chain 1 CACGUUUGAGUCCAUGCCCAAUU; chain 2 UUGGGCAUGGACUCAAACGUGUU; listed as RNA, chemistry not given here)”, the “Cell Viability (% of Scramble Control)” value in the series with HCC1954 [4] (setting [6]) is on record as 68%; with HCC1954 [4] (setting [7]) it was 49%; with SKBR3 (setting [8]), 51%; in the series on SKBR3 (setting [9]), 33%; in the series on HCC70 (setting [10]), 76%; in the series with HCC70 (setting [11]), 49%. Moreover, the “Cell Viability (% of Scramble Control)” value with BT549 (setting [12]) was determined as 51%; with BT549 (setting [13]) it was 40%; in the series on BT474 (setting [14]) it was 35%; with BT474 (setting [15]) it was 26%. For the same compound, the “Enhanced Paclitaxel effect due to gene knockdown” value with HCC1954 [4] (HCC1954) came out at 6%; with SKBR3 (SKBR3) it was 6%; with HCC70 (HCC70), 21%; in the series with BT549 (BT549), 19%; in the series on BT474 (BT474) it was 32%. Further, the half-life entry in series [5] was “about 1 hour”. Besides, the “time within which siHER2 was degraded” value in [5] (without nanoparticles) is no more than 0.5 h. Also, the pIC50 with HER2+ cell lines is greater than 8.30.

Turning to “siSCR: non-targeting or scrambled siRNA control, SEQ ID NO. 5 and 6 (chain 1 UGGUUUACAUGUCGACUAA; chain 2 UUAGUCGACAUGUAAACCA; listed as RNA, chemistry not given here) [reference compound]”, the “Cell Viability (% of Scramble Control)” value with HCC1954 [4] (setting [7]) is recorded as 55%; in the series with SKBR3 (setting [9]), 39%; with HCC70 (setting [11]), 70%; in the series with BT549 (setting [13]), 59%; in the series on BT474 (setting [15]) it was 58%.
